Data published in ChEMBL document CHEMBL1201862, “PubChem BioAssay data set” (2004).
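The compound was tested at five concentrations on cells cultured in 96-well plates, with a 48-hour exposure period. Abbreviation: GI50, concentration required for 50% inhibition of growth.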 Active and inactive are the calls of the source. Rule as the data show it: active = GI50 up to about 1.1 µM and inactive = higher.

Legend:
Assay in all cases: NCI tumour cell line growth inhibition, 48 h
IGROV-1 = test system: IGROV-1
EKVX = test system: EKVX
TK-10 = test system: TK-10
NCI/ADR-RES = test system: NCI/ADR-RES
HT-29 = test system: HT-29
786-0 = test system: 786-0
COLO 205 = test system: COLO 205
A549 = test system: A549
M14 = test system: M14
Hs-578T = test system: Hs-578T
PC-3 = test system: PC-3
Malme-3M = test system: Malme-3M
MCF7 = test system: MCF7
MDA-MB-435 = test system: MDA-MB-435
SF-268 = test system: SF-268
SNB-75 = test system: SNB-75
UACC-62 = test system: UACC-62
SK-MEL-5 = test system: SK-MEL-5
SK-MEL-2 = test system: SK-MEL-2
CAKI-1 = test system: CAKI-1
DU-145 = test system: DU-145
RXF 393 = test system: RXF 393
CCRF-CEM = test system: CCRF-CEM
T47D = test system: T47D
UO-31 = test system: UO-31
U-251 = test system: U-251
NCI-H23 = test system: NCI-H23
SK-OV-3 = test system: SK-OV-3
NCI-H226 = test system: NCI-H226
SF-295 = test system: SF-295
SW-620 = test system: SW-620
MDA-MB-231 = test system: MDA-MB-231
LOX IMVI = test system: LOX IMVI
OVCAR-4 = test system: OVCAR-4
MOLT-4 = test system: MOLT-4
BT-549 = test system: BT-549
SR = test system: SR
ACHN = test system: ACHN
OVCAR-3 = test system: OVCAR-3
SN12C = test system: SN12C
HOP-62 = test system: HOP-62
HCT-116 = test system: HCT-116
RPMI-8226 = test system: RPMI-8226
NCI-H522 = test system: NCI-H522
SNB-19 = test system: SNB-19
HOP-92 = test system: HOP-92
SK-MEL-28 = test system: SK-MEL-28
SF-539 = test system: SF-539
OVCAR-5 = test system: OVCAR-5
OVCAR-8 = test system: OVCAR-8
HCT-15 = test system: HCT-15
UACC-257 = test system: UACC-257
K562 = test system: K562
NCI-H460 = test system: NCI-H460
KM12 = test system: KM12
HL-60 = test system: HL-60
HCC 2998 = test system: HCC 2998
MDA-N = test system: MDA-N
A498 = test system: A498

With `C=C1C[C@H](O)[C@H]2C(C[Se]c3ccccc3)C(=O)O[C@@H]2[C@H]2[C@H](C)C(O)C[C@@H]12` (stereo partly drawn) the GI50 (IGROV-1) was 25.3 µM (inactive), the GI50 (EKVX) was 33.7 µM (inactive) and the GI50 (TK-10) was 56.9 µM (inactive). For the same compound, the GI50 (NCI/ADR-RES) was 20.2 µM (inactive), the GI50 (HT-29) was 46.1 µM (inactive) and the GI50 (786-0) was 33 µM (inactive). For the same compound, the GI50 (COLO 205) was 50.7 µM (inactive), the GI50 (A549) was 44.2 µM (inactive) and the GI50 (M14) was 31.5 µM (inactive). For the same compound, the GI50 (Hs-578T) was 32.8 µM (inactive), the GI50 (PC-3) was 22.7 µM (inactive) and the GI50 (Malme-3M) was 40.6 µM (inactive). For the same compound, the GI50 (MCF7) was > 100 µM (inactive), the GI50 (MDA-MB-435) was 80.2 µM (inactive) and the GI50 (SF-268) was 67.6 µM (inactive). For the same compound, the GI50 (SNB-75) was 31.8 µM (inactive), the GI50 (UACC-62) was 19.1 µM (inactive) and the GI50 (SK-MEL-5) was 33.6 µM (inactive). For the same compound, the GI50 (SK-MEL-2) was 66.2 µM (inactive), the GI50 (CAKI-1) was 71.6 µM (inactive) and the GI50 (DU-145) was 44.2 µM (inactive). The GI50 (RXF 393) was 13.1 µM (inactive), the GI50 (CCRF-CEM) was 24.8 µM (inactive) and the GI50 (T47D) was 28.3 µM (inactive). For the same compound, the GI50 (UO-31) was 22.8 µM (inactive), the GI50 (U-251) was 16.4 µM (inactive) and the GI50 (NCI-H23) was 15.7 µM (inactive). For the same compound, the GI50 (SK-OV-3) was > 100 µM (inactive), the GI50 (NCI-H226) was 23.1 µM (inactive) and the GI50 (SF-295) was 75.9 µM (inactive). The GI50 (SW-620) was 27.5 µM (inactive), the GI50 (MDA-MB-231) was 14.8 µM (inactive) and the GI50 (LOX IMVI) was 21.2 µM (inactive). For the same compound, the GI50 (OVCAR-4) was 38.1 µM (inactive), the GI50 (MOLT-4) was 31.6 µM (inactive) and the GI50 (BT-549) was 28.8 µM (inactive). For the same compound, the GI50 (SR) was 23.4 µM (inactive), the GI50 (ACHN) was 27.9 µM (inactive) and the GI50 (OVCAR-3) was 24.4 µM (inactive). The GI50 (SN12C) was 21.8 µM (inactive), the GI50 (HOP-62) was > 100 µM (inactive) and the GI50 (HCT-116) was 23.1 µM (inactive). For the same compound, the GI50 (RPMI-8226) was 23.9 µM (inactive), the GI50 (NCI-H522) was 17.5 µM (inactive) and the GI50 (SNB-19) was > 100 µM (inactive). For the same compound, the GI50 (HOP-92) was 29.3 µM (inactive), the GI50 (SK-MEL-28) was 76.2 µM (inactive) and the GI50 (SF-539) was 55.3 µM (inactive). The GI50 (OVCAR-5) was 20.6 µM (inactive), the GI50 (OVCAR-8) was 41.8 µM (inactive) and the GI50 (HCT-15) was 13.8 µM. The GI50 (UACC-257) was 37.9 µM (inactive), the GI50 (K562) was 36.6 µM (inactive) and the GI50 (NCI-H460) was 34 µM (inactive). For the same compound, the GI50 (KM12) was 40 µM (inactive).

`COc1ccc(C(=O)/C=C/c2ccc(OCCSCCCCCCCCCCSCCOc3ccc(/C=C/C(=O)c4ccc(OC)c(OC)c4)cc3)cc2)cc1OC` was tested, and the GI50 (IGROV-1) was > 100 µM (inactive), the GI50 (EKVX) was > 100 µM (inactive) and the GI50 (TK-10) was > 100 µM (inactive). For the same compound, the GI50 (HT-29) was > 100 µM (inactive), the GI50 (786-0) was > 100 µM (inactive) and the GI50 (COLO 205) was > 100 µM (inactive). For the same compound, the GI50 (A549) was > 100 µM (inactive), the GI50 (M14) was > 100 µM (inactive) and the GI50 (Hs-578T) was > 100 µM (inactive). The GI50 (PC-3) was > 100 µM (inactive), the GI50 (Malme-3M) was > 100 µM (inactive) and the GI50 (MCF7) was > 100 µM (inactive). For the same compound, the GI50 (HL-60) was > 100 µM (inactive), the GI50 (MDA-MB-435) was > 100 µM (inactive) and the GI50 (SF-268) was > 100 µM (inactive). The GI50 (SNB-75) was > 100 µM (inactive), the GI50 (UACC-62) was > 100 µM (inactive) and the GI50 (HCC 2998) was > 100 µM (inactive). For the same compound, the GI50 (SK-MEL-5) was > 100 µM (inactive), the GI50 (CAKI-1) was > 100 µM (inactive) and the GI50 (DU-145) was > 100 µM (inactive). For the same compound, the GI50 (CCRF-CEM) was > 100 µM (inactive), the GI50 (T47D) was > 100 µM (inactive) and the GI50 (NCI-H23) was > 100 µM (inactive). The GI50 (SK-OV-3) was > 100 µM (inactive), the GI50 (SF-295) was > 100 µM (inactive) and the GI50 (SW-620) was > 100 µM (inactive). For the same compound, the GI50 (MDA-MB-231) was > 100 µM (inactive), the GI50 (LOX IMVI) was > 100 µM (inactive) and the GI50 (MOLT-4) was > 100 µM (inactive). The GI50 (MDA-N) was > 100 µM (inactive), the GI50 (BT-549) was > 100 µM (inactive) and the GI50 (SR) was > 100 µM (inactive). For the same compound, the GI50 (ACHN) was > 100 µM (inactive), the GI50 (SN12C) was > 100 µM (inactive) and the GI50 (HOP-62) was > 100 µM (inactive). For the same compound, the GI50 (HCT-116) was > 100 µM (inactive), the GI50 (RPMI-8226) was > 100 µM (inactive) and the GI50 (NCI-H522) was 73.8 µM (inactive). The GI50 (A498) was > 100 µM (inactive), the GI50 (SK-MEL-28) was > 100 µM (inactive) and the GI50 (SF-539) was > 100 µM (inactive). For the same compound, the GI50 (OVCAR-8) was > 100 µM (inactive), the GI50 (HCT-15) was greater than 100 µM and the GI50 (UACC-257) was > 100 µM (inactive). The GI50 (K562) was > 100 µM (inactive), the GI50 (NCI-H460) was > 100 µM (inactive) and the GI50 (KM12) was > 100 µM (inactive).
